Laboratory results taken from patent EP3991725B1, “NOVEL ENTERO-ANTISEPTIC FOR THE TREATMENT OF GASTROINTENSTINAL INFECTIONS IN HUMANS” (Ninkov, Dusan, priority 2020, dated 2022).

Legend:
Salmonella = experiment: Comparative in vitro examination of selected pathogens, zone diameter; type: cell-based; details: (Müller)Hinton-Agar; amount used: The novel compound 0.05 mL; Cephalosporin 0.1 mL; Ampicillin 0.2 mL
bacteria = experiment: In vitro studies of bactericide effect; type: cell-based; details: compared with Thymol and Carvacrol
Source text: Their physiological activity is well known. […] The phenol groups of both Thymol and Carvacrol are very aggressive to pathogens: bacteria, fungi etc. These groups are needed for bioactivity of our product. What has been done was making the phenol group less reactive by reacting them with carboxylic and amino group of glycine. The product should be administered p.o. (per os). The novelty idea was to hydrolyze a part of the new molecule in the stomach by hydrochloric acid. Carvacrol and an ester of Glycine and Thymol will be slowly hydrolyzed into Thymol and Glycine. […] The subject of this invention is to produce a potent entero-antiseptic for the treatment gastrointestinal infections in humans.

Listeria monocytogenes = experiment: Comparative in vitro examination of selected pathogens, zone diameter; type: cell-based; details: (Müller)Hinton-Agar; amount used: The novel compound 0.05 mL; Cephalosporin 0.1 mL; Ampicillin 0.2 mL
[1] = system: Salmonella typhimurium DT104; experiment: as above; type: cell-based; details: (Müller)Hinton-Agar; amount used: The novel compound 0.05 mL; Cephalosporin 0.1 mL; Ampicillin 0.2 mL
E. coli = experiment: as above; type: cell-based; details: (Müller)Hinton-Agar; amount used: The novel compound 0.05 mL; Cephalosporin 0.1 mL; Ampicillin 0.2 mL
Streptococcus pyogenes = experiment: as above; type: cell-based; details: (Müller)Hinton-Agar; amount used: The novel compound 0.05 mL; Cephalosporin 0.1 mL; Ampicillin 0.2 mL
Shigella = experiment: as above; type: cell-based; details: (Müller)Hinton-Agar; amount used: The novel compound 0.05 mL; Cephalosporin 0.1 mL; Ampicillin 0.2 mL
Yersinia = type: cell-based; details: (Müller)Hinton-Agar; amount used: The novel compound 0.05 mL; Cephalosporin 0.1 mL; Ampicillin 0.2 mL
Escherichia coli 0157H5 = experiment: Comparative in vitro examination of selected pathogens, zone diameter; type: cell-based; details: (Müller)Hinton-Agar; amount used: The novel compound 0.05 mL; Cephalosporin 0.1 mL; Ampicillin 0.2 mL
[2] = system: Salmonella strain which requires histidine; experiment: Ames test (mutagenic and carcinogenic effect); type: cell-based
Source text: (The subject of the testing was to determine the mutagenic and carcinogenic effect of the compound in tablet form). The test has been done by the Ames test. This test which is a widely and often used method that use pathogens in most cases bacteria's in order to test whether a given chemical, compound and/or medicine can cause any damage to the DNA of the test organism. This method is fast to conduct and easy to follow to check mutagenic or carcinogenic effect of the tested compound. In the lab dish with a the specially selected Salmonella strain which requires histidine, was added to a rat liver extract. The test has been done using the control-experimental method. In the dish volume of the 20 mL of liquid considered to be a control one, had no the compound in it. Into the dish we consider to be experimental one with also a volume of 20 mL, we added 2 mL of the compound, partly diluted into a glucose injectable solution. The mutagenic test results were negative in both lab dishes - control and experimental plates. The results were identical with no signs of the mutations.

rats [3] = experiment: Acute toxicity LD50, parenteral - intraperitoneal (i.p.), rats; details: i.p. dose 2,500 mg/kg
Streptococcus uberis = experiment: Comparative in vitro examination of selected pathogens, zone diameter; type: cell-based; details: (Müller)Hinton-Agar; amount used: The novel compound 0.05 mL; Cephalosporin 0.1 mL; Ampicillin 0.2 mL
Campylobacter = experiment: as above; type: cell-based; details: (Müller)Hinton-Agar; amount used: The novel compound 0.05 mL; Cephalosporin 0.1 mL; Ampicillin 0.2 mL
mice [4] = experiment: Acute toxicity LD50, oral (p.o.), mice; details: oral dose 2,000 mg/kg
Listeria = experiment: Comparative in vitro examination of selected pathogens, zone diameter; type: cell-based; details: (Müller)Hinton-Agar; amount used: The novel compound 0.05 mL; Cephalosporin 0.1 mL; Ampicillin 0.2 mL
[5] = system: mammalian cells, mitotic division; experiment: Pilot test of effect on mitotic cell division; type: cell-based; details: the compound in tablet form
Source text: In the pilot test at the same Institute, the effect of the compound on the mammalian cells, mitotic division has also been tested. It has been investigated if the compound in tablet form will have any negative - suppressive effect on the mitotic cells division. […] It is a positive sign that the compound in tablet form might be used for on pregnant mammals, without danger of the teratogenic effect on the fetus in the wombs, by the pregnant mammals.

Vibrio = experiment: Comparative in vitro examination of selected pathogens, zone diameter; type: cell-based; details: (Müller)Hinton-Agar; amount used: The novel compound 0.05 mL; Cephalosporin 0.1 mL; Ampicillin 0.2 mL
Streptococcus pneumonia = experiment: as above; type: cell-based; details: (Müller)Hinton-Agar; amount used: The novel compound 0.05 mL; Cephalosporin 0.1 mL; Ampicillin 0.2 mL
Staphylococcus aureus = experiment: as above; type: cell-based; details: (Müller)Hinton-Agar; amount used: The novel compound 0.05 mL; Cephalosporin 0.1 mL; Ampicillin 0.2 mL
humans = experiment: Clinical pilot study for side effects of the compound tablets; type: in vivo; details: 60 humans; 250 mg / 30 kg of the body weight every 12 hours for seven (7) days
Procedure: The reason for this testing was to check if the compound tablets, after a longer period of use, can cause any eventual side effects.
The test results were generated and monitored to obtain the relevant information and facts. In this study, the general monitored parameters were pulse, breathing, ECG (Electrocardiography), any discomfort, adverse events and/or allergy monitoring. These parameters were measured before the treatment with the compound and 15 minutes after its intake. The compound was ingested on the therapeutic days in each patient at 8.00 AM and 8.00 PM CET (paragraph [0026] and paragraph [0027]). After The compound had been consumed, the physician made observations for 30 min. Feeling of the patients during and after the intake of the compound will also be recorded for each participant.
As part of the biochemical analysis of patients' blood, the blood sample of each patient was checked for biochemical parameters. Blood samples were taken from each patient before the beginning of the test, on the 4th day from the tests beginning, and on the 8th day form the tests beginning. The last blood samples have to be checked 12 hours from the last intake of the compound. The biochemical parameters that were measured in blood samples include: • 1. Liver status • 2. C Reactive protein • 3. Kidney Status
The dose was: 250 mg of the compound / 30 kg of the body weight every 12 hours for seven (7) days (paragraph [0026] and paragraph [0027]).
The clinical study started on November 5th, 2019, and was completed on November 29th, 2019.

rats [6] = experiment: Acute toxicity LD50, oral (p.o.), rats; details: oral dose 2,500 mg/kg
mice [7] = experiment: Acute toxicity LD50, parenteral - intraperitoneal (i.p.), mice; details: mouse, in vivo
[8] = phenol group of Carvacrol; cited from earlier work
rats [9] = details: oral (p.o.), Carvacrol 99,5% concentration, reference value; cited from earlier work

Compound: 2-(2-isopropyl-5-methylphenoxy)-2-oxoethan-1-aminium 2-isopropyl-5-methylphenolate [The novel compound]
- R (evaluation of the results by zone diameter) (Salmonella): E S
- zone diameter (Salmonella): 34 mm
- bactericide effect (bacteria): more effective and faster bactericide effect than existing Thymol and Carvacrol
- R (evaluation of the results by zone diameter) (Listeria monocytogenes): E S
- zone diameter (Listeria monocytogenes): 38 mm
- R (evaluation of the results by zone diameter) [1]: E S
- zone diameter [1]: 30 mm
- R (evaluation of the results by zone diameter) (E. coli): E S
- zone diameter (E. coli): 32 mm
- R (evaluation of the results by zone diameter) (Streptococcus pyogenes): E S
- zone diameter (Streptococcus pyogenes): 34 mm
- R (evaluation of the results by zone diameter) (Shigella): E S
- zone diameter (Shigella): 31 mm
- R (evaluation of the results by zone diameter) (Yersinia): E S
- zone diameter (Yersinia): 30 mm
- R (evaluation of the results by zone diameter) (Escherichia coli 0157H5): E S
- zone diameter (Escherichia coli 0157H5): 29 mm
- mutagenic test results ([2]; Ames test, rat liver extract, 2 mL of the compound, partly diluted into a glucose injectable solution, in 20 mL dish, preliminary result): negative
- carcinogenic effect ([2]; suggested from the negative Ames test result, the compound in tablet form): no carcinogenic effect
- rats out of a hundred (100) that changed their behavior and demonstrated discomfort (rats [3]): 35
- R (evaluation of the results by zone diameter) (Streptococcus uberis): E S
- zone diameter (Streptococcus uberis): 37 mm
- R (evaluation of the results by zone diameter) (Campylobacter): E S
- zone diameter (Campylobacter): 35 mm
- mice out of a hundred (100) that changed their behavior and demonstrated light discomfort (mice [4]): 21
- R (evaluation of the results by zone diameter) (Listeria): E S
- zone diameter (Listeria): 32 mm
- negative - suppressive effect on the mitotic cells division [5]: no negative effects
- R (evaluation of the results by zone diameter) (Vibrio): E S
- zone diameter (Vibrio): 33 mm
- R (evaluation of the results by zone diameter) (Streptococcus pneumonia): E S
- zone diameter (Streptococcus pneumonia): 36 mm
- R (evaluation of the results by zone diameter) (Staphylococcus aureus): E S
- zone diameter (Staphylococcus aureus): 32 mm
- C Reactive Protein (CRP) measurements (humans): no inflammation was developed
- Electrocardiography measurements (humans): regular without any pathological and irregular oscillations
- kidney functions (urine and blood parameters) (humans): No irregular parameters were reported
- liver function biochemical analysis from blood samples (humans): No irregular parameters were reported
- pulse frequency and blood pressure (humans): not significantly altered
- respiratory function (humans): not disturbed
- symptoms of allergy (humans): no symptoms of allergy
- tolerance to the compound upon the prescribed dosage (humans): showed tolerance
- rats out of a hundred (100) that changed their behavior and demonstrated light discomfort (rats [6]): 37
- mice out of a hundred (100) that changed their behavior and demonstrated discomfort (mice [7]): 27
- time after which discomfort symptoms disappeared (mice [7]): 3 to 5 min

Compound: CC1(C)S[C@@H]2[C@H](NC(=O)[C@H](N)c3ccccc3)C(=O)N2[C@H]1C(=O)O [Ampicillin]
- R (evaluation of the results by zone diameter) (Salmonella): M S
- zone diameter (Salmonella): 8 mm
- R (evaluation of the results by zone diameter) (Listeria monocytogenes): M S
- zone diameter (Listeria monocytogenes): 5 mm
- R (evaluation of the results by zone diameter) [1]: M S
- zone diameter [1]: 6 mm
- R (evaluation of the results by zone diameter) (E. coli): R (0mm - 4mm: resistant: R)
- zone diameter (E. coli): 2 mm
- R (evaluation of the results by zone diameter) (Streptococcus pyogenes): R (0mm - 4mm: resistant: R)
- zone diameter (Streptococcus pyogenes): 3 mm
- R (evaluation of the results by zone diameter) (Shigella): M S
- zone diameter (Shigella): 6 mm
- R (evaluation of the results by zone diameter) (Yersinia): R (0mm - 4mm: resistant: R)
- zone diameter (Yersinia): 1 mm
- R (evaluation of the results by zone diameter) (Escherichia coli 0157H5): M S
- zone diameter (Escherichia coli 0157H5): 7 mm
- R (evaluation of the results by zone diameter) (Streptococcus uberis): R (0mm - 4mm: resistant: R)
- zone diameter (Streptococcus uberis): 0 mm
- R (evaluation of the results by zone diameter) (Campylobacter): R (0mm - 4mm: resistant: R)
- zone diameter (Campylobacter): 0 mm
- R (evaluation of the results by zone diameter) (Listeria): R (0mm - 4mm: resistant: R)
- zone diameter (Listeria): 2 mm
- R (evaluation of the results by zone diameter) (Vibrio): R (0mm - 4mm: resistant: R)
- zone diameter (Vibrio): 4 mm
- R (evaluation of the results by zone diameter) (Streptococcus pneumonia): R (0mm - 4mm: resistant: R)
- zone diameter (Streptococcus pneumonia): 0 mm
- R (evaluation of the results by zone diameter) (Staphylococcus aureus): R (0mm - 4mm: resistant: R)
- zone diameter (Staphylococcus aureus): 0 mm

Compound: Cc1ccc(C(C)C)cc1O [Carvacrol]
- pKa [8]: 10.4
- LD50 (rats [9]): 810 mg/kg
